The results in this text go back to US20010044445A1, “AZOLE INHIBITORS OF CYTOKINE PRODUCTION” (priority 1999, published 2001).

Molecules are shown by their SMILES.

One data set relates to IL-2. The data set can be described thus: CD3 and CD28 Activation of Peripheral Blood T Cells and Determination of Secreted IL-2 Levels (C28 HU Assay). The data set is classed as cell-based, Human. To be noted: PBMC stimulated with anti-CD3 and anti CD28 mAbs, 24 hour; for inhibition at 1 µM: concentration 1 μM (in c2); for IC50: IL-2 secretion. The procedure:
Human peripheral blood mononuclear cells were cultured in RPMI 1640 medium supplemented with 10 μg/ml gentamicin, 50 μM 2-mercaptoethanol, 1X MEM non-essential amino acids (Sigma Chemical Co., St. Louis, Mo.), 100 U/ml sodium penicillin G, 100 μg/ml streptomycin sulfate, 2 mM L-glutamine, 1 mM sodium pyruvate (Life Technologies, Grand Island, N.Y.) and 10% fetal bovine serum (Hyclone, Logan, Utah) at 37° C. with 5% CO2.
Human peripheral blood mononuclear cells (PBMC) were isolated by Ficoll-Hypaque seperation. PBMCs were stimulated with a combination of immobilized anti-CD3 and soluble anti CD28 mAbs as described in Faltynek, et al. J. Enzyme Inhibition 1995, 9, 111-122, hereby incorporated by reference. Following a 24 hour incubation, cell supernatants were harvested and IL-2 levels were determined. 100 μl of 5 μg/ml monoclonal murine anti-human IL-2 antibody (Biosource International) in D-PBS was added to 96 well Maxisorb plates (Nunc) and incubated at 4° C. overnight. Plates were washed 4 times with D-PBS containing 0.05% Tween 20 (wash buffer) and blocked with D-PBS containing 1% BSA and 10 mM NaN3 (Diluent/Blocking buffer) for 1-3 hours at room temperature or overnight at 4° C. Plates were washed and recombinant human IL-2 diluted (at 10,000, 5,000, 2,500, 1,250, 625, 312.5, 156.25, 78, 39, 20 pg/ml) in diluent/blocking buffer containing a matched percentage of complete RPMI 1640 medium as the unknown samples. Tissue culture supernatant at various dilutions were added in triplicate at 100 μl/well. Plates were incubated for 2 hours at room temperature and washed 4 times with wash buffer. 100 pl of rabbit anti-human IL-2 (10 μg/ml, Genzyme) was added and incubated for 1 hour at room temperature. The incubation was followed by 4 washes and subsequent addition of 100 pl of 1:2000 dilution of alkaline phosphatase-conjugated goat anti-rabbit F(ab′)2 (Biosource International). After 1 hour the plates were washed 4 times and 100 μl of pNPP (Southern Biotech or Sigma) at 1 mg/ml in buffer was added. Color development was allowed to proceed at room temperature for 20 minutes before addition of 50 μl of 2 N NaOH. Absorbance at 405 nm was determined using a plate reader (Molecular Devices). IL-2 concentrations were calcualted using SoftMax (Molecular Devices) based on the IL-2 standard solutions.

Data set [1] deals with Human peripheral blood mononuclear cells. Put plainly: Human Concanavalin-A Proliferation Assay (Con HU Assay). To be noted: Homo sapiens, PBMC, concanavalin-A stimulated human PBMC; for inhibition at 1 µM / inhibition at 100 µM / inhibition at 10 µM: 72 h, 3 days, read-out: % Inhibition of proliferation (at concentrations of 1,10, or 100 μm); for inhibition at 1 µM: concentration 1 μm (in parentheses in the cell); for inhibition at 100 µM: concentration 100 μm (in parentheses in the cell); for IC50: tritiated thymidine; for inhibition at 10 µM: concentration 10 μm (in parentheses in the cell). The format is cell-based. The procedure, abridged:
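Histopaque-isolated human PBMC (50,000/well) were pre-incubated 15 min with compounds, then stimulated with concanavalin-A at 2.5 μg/ml final for 3 days at 37 °C, 5% CO2. Proliferation measured by 6 h pulse with 0.5 μCi/well [3H]thymidine and beta counting.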

[2] abbreviates: Homo sapiens, read-out: % Inhibition of IL-2 secretion (At concentrations of 1, 10, or 100 μM).

In general, melting point refers to the temperature, or range, at which the solid turns liquid. In turn, `O=C(Nc1ccccc1)Nc1ccc(-n2nc(C(F)(F)F)cc2C(F)(F)F)cc1` [Example 36, N-[4-[3,5-bis(trifluoromethyl)-1H-pyrazol-1-yl]phenyl]-N′-phenylurea] had a melting point of 185 to 187 °C. Further, the inhibition at 1 µM in the data set on IL-2 (setting [2]) came out at 10%.
One may read the IC50 as the concentration at which inhibition is half-maximal. `O=C(Nc1ccc(-n2nc(C(F)(F)F)cc2C(F)(F)F)cc1)C1CCc2ccccc2C1` (centres unmarked) [Example 153, N-[4-[3,5-bis(trifluoromethyl)-1H-pyrazol-1-yl]phenyl]-1,2,3,4-tetrahydro-2-naphthalenecarboxamide] returned a melting point of 199 to 201 °C. Besides, in the data set with IL-2 (Homo sapiens), the IC50 is 457 nM. For the same compound, in the data set with IL-2 (Homo sapiens, concentration 100 μM (in c2), read-out: % Inhibition of IL-2 secretion (At concentrations of 1, 10, or 100 μM)), the inhibition at 100 µM stood at 94%.
`CC(C)(Oc1ccc(Cl)cc1)C(=O)Nc1ccc(-n2nc(C(F)(F)F)cc2C(F)(F)F)cc1` [Example 155, N-[4-[3,5-bis(trifluoromethyl)-1H-pyrazol-1-yl]phenyl]-2-(4-chlorophenoxy)-2-methylpropanamide]: the inhibition at 1 µM in the data set with IL-2 (setting [2]) was 8%.
`O=C(CCC1CCCC1)Nc1ccc(-n2nc(C(F)(F)F)cc2C(F)(F)F)cc1` [Example 99, N-[4-[3,5-bis(trifluoromethyl)-1H-pyrazol-1-yl]phenyl]cyclopentanepropanamide] registered a melting point of 130 to 132 °C. The inhibition at 1 µM with IL-2 (setting [2]) turned out to be 9%.
On to `O=C(Nc1ccc(-n2nc(C(F)(F)F)cc2C(F)(F)F)cc1)c1cnnc2ccccc12` [Example 118, N-[4-[3,5-bis(trifluoromethyl)-1H-pyrazol-1-yl]phenyl]-4-cinnolinecarboxamide], for which, in the data set with IL-2 (setting [2]), the inhibition at 1 µM is 27%.
Turning to `O=C(Nc1ccc(-n2nc(C(F)(F)F)cc2C(F)(F)F)cc1)C12CC3CC(CC(C3)C1)C2` [Example 62], the IC50 with IL-2 was determined as 5040 nM.
Consider `O=C(Nc1ccc(-n2nc(C(F)(F)F)cc2C(F)(F)F)cc1)c1ccc(Oc2cc(Cl)cc(Cl)c2)o1` [Example 8, N-[4-[3,5-bis(trifluoromethyl)-1H-pyrazol-1-yl]phenyl]-5-(3,5-dichlorophenoxy)-2-furancarboxamide], for which the melting point fell in the range of 152 to 153 °C. The inhibition at 1 µM with IL-2 (setting [2]) amounted to 20%.
`Cc1nnsc1C(=O)Nc1ccc(-n2nccc2C)cc1` [Example 285, 4-Methyl-N-[4-(5-methyl-1H-pyrazol-1-yl)phenyl]-1,2,3-thiadiazole-5-carboxamide] came in with a melting point of 163 to 164 °C. Moreover, the inhibition at 1 µM in the data set on IL-2 (setting [2]) turned out to be 26%.
As to `O=C(Nc1ccc(-n2nc(C(F)(F)F)cc2C(F)(F)F)cc1)Nc1ccc(C(F)(F)F)cc1` [Example 33, N-[4-[3,5-bis(trifluoromethyl)-1H-pyrazol-1-yl]phenyl]-N′-[4-(trifluoromethyl)phenyl]urea], the inhibition at 1 µM in the data set on IL-2 (setting [2]) was 6%.
In the case of `O=C(/C=C/c1cccs1)Nc1ccc(-n2nc(C(F)(F)F)cc2C(F)(F)F)cc1` [Example 171, (E)-N-[4-[3,5-bis(trifluoromethyl)-1H-pyrazol-1-yl]phenyl]-3-(2-thienyl)-2-propenamide], the melting point lay in the range of 216 to 218 °C. For the same compound, the inhibition at 1 µM in data set [1] was found to be 12%.
Taken in the same sequence, the figures for `O=C(Nc1ccc(-n2nc(C(F)(F)F)cc2C(F)(F)F)cc1)c1c(F)cccc1F` [Example 160, N-[4-[3,5-bis(trifluoromethyl)-1H-pyrazol-1-yl]phenyl]-2,6-difluorobenzamide] were 127 to 128 °C and 1%.
Consider `O=C(Nc1ccc(-n2nc(C(F)(F)F)cc2C(F)(F)F)cc1)c1ccoc1` [Example 14, N-[4-[3,5-bis(trifluoromethyl)-1H-pyrazol-1-yl]phenyl]-3-furancarboxamide], for which the melting point fell in the range of 206 to 207 °C. Moreover, in data set [1], the inhibition at 100 µM is 97% and the IC50 is 538 nM.
For `Cn1ncc(C(=O)Nc2ccc(-n3nc(C(F)(F)F)cc3C(F)(F)F)cc2)c1[N+](=O)[O-]` [Example 83, N-[4-[3,5-bis(trifluoromethyl)-1H-pyrazol-1-yl]phenyl]-1-methyl-5-nitro-1H-pyrazole-4-carboxamide], the melting point was in the range of 214 to 216 °C. Moreover, in data set [1], the inhibition at 10 µM worked out at 99% and the IC50 amounted to 71 nM.
Turning to `O=C(COc1ccccc1[N+](=O)[O-])Nc1ccc(-n2nc(C(F)(F)F)cc2C(F)(F)F)cc1` [Example 168, N-[4-[3,5-bis(trifluoromethyl)-1H-pyrazol-1-yl]phenyl]-2-(2-nitrophenoxy)acetamide], the melting point lay in the range of 170 to 173 °C. The inhibition at 1 µM in data set [1] was found to be 20%.
Take `CC(=O)N1CCC(C(=O)Nc2ccc(-n3nc(C(F)(F)F)cc3C(F)(F)F)cc2)CC1` [Example 174, 1-Acetyl-N-[4-[3,5-bis(trifluoromethyl)-1H-pyrazol-1-yl]phenyl]-4-piperidinecarboxamide]: the melting point lay within 94 to 95 °C. In data set [1], the inhibition at 10 µM came to 99% and it took 730 nM to reach half-maximal inhibition (IC50).
Regarding `CCCCCCC(=O)Nc1ccc(-n2nc(C(F)(F)F)cc2C(F)(F)F)cc1` [Example 56, N-[4-[3,5-bis(trifluoromethyl)-1H-pyrazol-1-yl]phenyl]heptanamide], the melting point was 88 to 90 °C. Besides, the inhibition at 1 µM in data set [1] came to 32%.
Taken in the same sequence, the figures for `Cc1noc(C)c1C(=O)Nc1ccc(-n2nc(C(F)(F)F)cc2C(F)(F)F)cc1C(F)(F)F` [Example 278, N-[4-[3,5-bis(trifluoromethyl)-1H-pyrazol-1-yl]-2-(trifluoromethyl)phenyl]-3,5-dimethyl-4-isoxazolecarboxamide] were 145 to 146 °C and 4%.
In the case of `O=C(Nc1ccc(-n2nc(C(F)(F)F)cc2C(F)(F)F)cc1)c1ccc([N+](=O)[O-])cc1` [Example 93, N-[4-[3,5-bis(trifluoromethyl)-1H-pyrazol-1-yl]phenyl]-4-nitrobenzamide], the melting point is 185 to 188 °C. Besides, in data set [1], the inhibition at 100 µM amounted to 100% and the IC50 was determined as 365 nM.
With `O=C(Nc1ccc(-n2nc(C(F)(F)F)cc2C(F)(F)F)cc1)c1c(Cl)ccc([N+](=O)[O-])c1Cl` [Example 216, N-[4-[3,5-bis(trifluoromethyl)-1H-pyrazol-1-yl]phenyl]-2,6-dichloro-3-nitrobenzamide], the melting point is 160 to 161 °C. For the same compound, in data set [1], the inhibition at 10 µM came out at 100% and the IC50 turned out to be 267 nM.
`O=C(Nc1cccc(-n2nc(C(F)(F)F)cc2C(F)(F)F)c1)c1ccc(F)cc1F` [Example 203, N-[3-[3,5-bis(trifluoromethyl)-1H-pyrazol-1-yl]phenyl]-2,4-difluorobenzamide] had a melting point of 133 to 134 °C. For the same compound, the inhibition at 1 µM in data set [1] was 1%.
Taken in the same sequence, the figures for `NC(=O)c1ccccc1NC(=O)c1ccc(-n2nc(C(F)(F)F)cc2C(F)(F)F)cc1` [Example 196, N-[2-(aminocarbonyl)phenyl]-4-[3,5-bis(trifluoromethyl)-1H-pyrazol-1-yl]benzamide] were 195 to 196 °C and 11%.
The compound `O=C(Nc1ccc(F)cc1)Nc1ccc(-n2nc(C(F)(F)F)cc2C(F)(F)F)cc1` [Example 32, N-[4-[3,5-bis(trifluoromethyl)-1H-pyrazol-1-yl]phenyl]-N′-(4-fluorophenyl)urea] gave a melting point of 201 to 202 °C. In data set [1], the inhibition at 100 µM is 100% and inhibition was half-maximal at 8440 nM (IC50).
